Ten compounds from US12180193B2, “Accelerating fibrosarcoma protein degrading compounds and associated methods of use” (Arvinas Operations, Inc., priority 2020, dated 2024) can be followed below.

For one assay, the target named is T1, BRAF V600E (Homo sapiens, UniProt P15056, V600E).
T1 construct: expressed in transfected cells
In words: Cellular assay of target protein degradation, T-Rex 293 cells stably transfected with HA-BRAF_V600E (HA immunofluorescence, high content imaging). In kind it is cell-based. The following applies: T-Rex 293 HA-BRAF V600E; for DC50: half maximal degradation, read-out: BRaf V600E DC50; for Dmax: maximum degradation observed. A digest of the protocol:
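Cells are plated with 1 ng/mL doxycycline and grown 24 h. Compound is then added (final 1 μM–0.1 nM, 0.1% DMSO) for another 24 h at 37 °C, followed by fixing, HA immunostaining and imaging to obtain DC50 and Dmax.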

The target of a further assay is T2, BRAF G466V (Homo sapiens, UniProt P15056, G466V).
T2 construct: expressed in transfected cells
As to the kind of experiment: Cellular assay of target protein degradation, T-Rex 293 cells stably transfected with HA-BRAF G466V (HA immunofluorescence, high content imaging). In kind it is cell-based. The following applies: T-Rex 293 HA-BRAF G466V; for DC50: half maximal degradation, read-out: BRaf G466V DC50; for Dmax: maximum degradation observed. A digest of the protocol:
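Read-out is HA immunofluorescence by high content imaging, with Hoechst and phalloidin co-staining, giving DC50 and Dmax as a percentage of control. Compound exposure lasts 24 hours at 37° C over 30 nM to 3 pM in 0.1% DMSO, with doxycycline-induced HA-BRAF G466V.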

The structures appear in SMILES notation.

T2 sequence (P15056 whole entry G466V): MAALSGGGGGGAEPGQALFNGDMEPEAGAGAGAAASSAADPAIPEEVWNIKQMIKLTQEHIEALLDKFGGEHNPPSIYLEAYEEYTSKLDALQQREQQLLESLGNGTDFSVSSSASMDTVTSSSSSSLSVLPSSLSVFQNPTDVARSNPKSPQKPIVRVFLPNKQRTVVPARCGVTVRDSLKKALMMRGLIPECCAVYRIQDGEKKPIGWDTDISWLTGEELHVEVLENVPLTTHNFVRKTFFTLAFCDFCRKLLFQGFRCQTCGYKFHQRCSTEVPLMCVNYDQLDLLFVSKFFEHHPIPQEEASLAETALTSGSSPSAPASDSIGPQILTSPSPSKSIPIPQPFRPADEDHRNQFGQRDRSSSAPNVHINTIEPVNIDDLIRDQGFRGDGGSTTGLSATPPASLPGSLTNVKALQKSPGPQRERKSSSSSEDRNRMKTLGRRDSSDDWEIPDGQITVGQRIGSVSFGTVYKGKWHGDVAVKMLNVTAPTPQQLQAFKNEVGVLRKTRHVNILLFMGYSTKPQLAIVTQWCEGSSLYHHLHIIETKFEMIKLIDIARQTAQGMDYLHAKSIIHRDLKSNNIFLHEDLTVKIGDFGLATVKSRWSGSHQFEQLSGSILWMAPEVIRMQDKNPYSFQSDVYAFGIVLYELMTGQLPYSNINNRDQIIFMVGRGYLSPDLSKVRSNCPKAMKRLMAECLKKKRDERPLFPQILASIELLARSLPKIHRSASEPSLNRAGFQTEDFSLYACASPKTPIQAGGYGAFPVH
T1 sequence (P15056 whole entry V600E): as the sequence (P15056 whole entry G466V) above, with V466G, V600E counted along it

As a reminder, the DC50 is the midpoint of the concentration-degradation curve. As usually defined, the Dmax is the largest share of the target that was removed. Read a high Dmax as deep degradation. Regarding `O=C1CC[C@@H](N2Cc3cc(OC[C@@H](O)CN4CC5(C4)CN(c4ccc(-c6cnc7[nH]cc(C(=O)c8c(F)ccc(NS(=O)(=O)N9CC[C@@H](F)C9)c8F)c7c6)cc4)C5)ccc3C2=O)C(=O)N1` [Compound 166, (3R)-N-{3-[5-(4-{6-[(2)S-3-({2-[(3R)-2,6-dioxopiperidin-3-yl]-1-oxo-2,3-dihydro-1H-isoindol-5-yl}oxy)-2-hydroxypropyl]-2,6-diazaspiro[3.3]heptan-2-yl}phenyl)-1H-pyrrolo[2,3-b]pyridine-3-carbonyl]-2,4-difluorophenyl}-3-fluoropyrrolidine-1-sulfonamide], at BRAF V600E, the DC50 was in the range of 5 to 50 nM and the Dmax was 35 to 70%. Also, at BRAF G466V, the DC50 fell in the range of 1 to 10 nM and the Dmax is above 70%.
In the case of `CN(CC1CCN(c2ccc3c(c2)CN(C2CCC(=O)NC2=O)C3=O)CC1)[C@H]1C[C@@H](Oc2ccc(-c3cnc4[nH]cc(C(=O)c5c(F)ccc(NS(=O)(=O)N6CC[C@@H](F)C6)c5F)c4c3)cc2)C1` (stereo partly drawn) [Compound 167, (3R)-N-[2,4-difluoro-3-(5-{4-[(1s,3s)-3-[({1-[2-(2,6-dioxopiperidin-3-yl)-1-oxo-2,3-dihydro-1H-isoindol-5-yl]piperidin-4-yl}methyl)(methyl)amino]cyclobutoxy)phe-nyl}-1H-pyrrolo[2,3-b]pyridine-3-carbonyl)phenyl]-3-fluoropyrrolidine-1-sulfonamide], on BRAF V600E, the DC50 is 5 to 50 nM and the Dmax was 35 to 70%. Further, at BRAF G466V, the DC50 is 1 to 10 nM and the Dmax lay within 35 to 70%.
`O=C1CCC(c2ccc(C3CCN(CC4CCN(c5ccc(-c6cnc7[nH]cc(C(=O)c8c(F)ccc(NS(=O)(=O)N9CC[C@@H](F)C9)c8F)c7c6)cc5)CC4)CC3)cc2F)C(=O)N1` (stereo partly drawn) [Compound 168, (3R)-N-[3-(5-{4-[4-({4-[4-(2,6-dioxopiperidin-3-yl)-3-fluorophenyl]piperidin-1-yl}methyl)piperidin-1-yl]phenyl}-1H-pyrrolo[2,3-b]pyridine-3-carbonyl)-2,4-difluorophenyl]-3-fluoropyrrolidine-1-sulfonamide]: on BRAF V600E, the DC50 fell in the range of 5 to 50 nM and the Dmax was below 35%. Further, at BRAF G466V, the DC50 is 1 to 10 nM and the Dmax is above 70%.
For the compound `CN1C(=O)CCC(N2Cc3cc(C4CCN(CC5CCN(c6ccc(-c7cnc8[nH]cc(C(=O)c9c(F)ccc(NS(=O)(=O)N%10CC[C@@H](F)C%10)c9F)c8c7)cc6)CC5)CC4)ccc3C2=O)C1=O` (stereo partly drawn) [Compound 169, (3R)-N-[2,4-difluoro-3-(5-{4-[4-({4-[2-(1-methyl-2,6-dioxopiperidin-3-yl)-1-oxo-2,3-dihydro-1H-isoindol-5-yl]piperidin-1-yl}methyl)piperidin-1-yl]phenyl}-1H-pyrrolo[2,3-b]pyridine-3-carbonyl)phenyl]-3-fluoropyrrolidine-1-sulfonamide], the DC50 on BRAF V600E is above 500 nM; on BRAF G466V, above 30 nM.
Turning to `O=C1CC[C@H](N2Cc3cc(C[C@H](O)CN4CC5(C4)CN(c4ccc(-c6cnc7[nH]cc(C(=O)c8c(F)ccc(NS(=O)(=O)N9CC[C@@H](F)C9)c8F)c7c6)cc4)C5)ccc3C2=O)C(=O)N1` [Compound 170, (3R)-N-{3-[5-(4-{6-[(2S)-3-{2-[(3S)-2,6-dioxopiperidin-3-yl]-1-oxo-2,3-dihydro-1H-isoindol-5-yl}-2-hydroxypropyl]-2,6-diazaspiro[3.3]heptan-2-yl}phenyl)-1H-pyrrolo[2,3-b]pyridine-3-carbonyl]-2,4-difluorophenyl}-3-fluoropyrrolidine-1-sulfonamide], on BRAF V600E, the DC50 is 50 to 500 nM and the Dmax lay within 35 to 70%. In addition, on BRAF G466V, the DC50 is 1 to 10 nM and the Dmax is above 70%.
For `O=C1CC[C@H](N2Cc3cc(CC[C@H](O)CN4CC5(C4)CN(c4ccc(-c6cnc7[nH]cc(C(=O)c8c(F)ccc(NS(=O)(=O)N9CC[C@@H](F)C9)c8F)c7c6)cc4)C5)ccc3C2=O)C(=O)N1` [Compound 172, (3R)-N-{3-[5-(4-{6-[(2S)-4-{2-[(3S)-2,6-dioxopiperidin-3-yl]-1-oxo-2,3-dihydro-1H-isoindol-5-yl}-2-hydroxybutyl]-2,6-diazaspiro[3.3]heptan-2-yl}phenyl)-1H-pyrrolo[2,3-b]pyridine-3-carbonyl]-2,4-difluorophenyl}-3-fluoropyrrolidine-1-sulfonamide], on BRAF V600E, the DC50 was in the range of 5 to 50 nM and the Dmax is 35 to 70%. Besides, on BRAF G466V, the DC50 lay in the range of 1 to 10 nM and the Dmax is above 70%.
With `O=C1CC[C@@H](N2Cc3cc(CC[C@H](O)CN4CC5(C4)CN(c4ccc(-c6cnc7[nH]cc(C(=O)c8c(F)ccc(NS(=O)(=O)N9CC[C@@H](F)C9)c8F)c7c6)cc4)C5)ccc3C2=O)C(=O)N1` [Compound 173, (3R)-N-{3-[5-(4-{6-[(2S)-4-{2-[(3R)-2,6-dioxopiperidin-3-yl]-1-oxo-2,3-dihydro-1H-isoindol-5-yl}-2-hydroxybutyl]-2,6-diazaspiro[3.3]heptan-2-yl}phenyl)-1H-pyrrolo[2,3-b]pyridine-3-carbonyl]-2,4-difluorophenyl}-3-fluoropyrrolidine-1-sulfonamide], at BRAF V600E, the DC50 is 5 to 50 nM and the Dmax lay within 35 to 70%. At BRAF G466V, the DC50 fell in the range of 1 to 10 nM and the maximal degradation (Dmax) was above 70%.
With `O=C1CCC(N2Cc3cc(N4CCC(CN5CCC(C6(c7ccc(-c8cnc9[nH]cc(C(=O)c%10c(F)ccc(NS(=O)(=O)N%11CC[C@@H](F)C%11)c%10F)c9c8)cc7)CC6)CC5)CC4)ccc3C2=O)C(=O)N1` (stereo partly drawn) [Compound 174, (3R)-N-{3-[5-(4-{1-[1-({1-[2-(2,6-dioxopiperidin-3-yl)-1-oxo-2,3-dihydro-1H-isoindol-5-yl]piperidin-4-yl}methyl)piperidin-4-yl]cyclopropyl}phenyl)-1H-pyrrolo[2,3-b]pyridine-3-carbonyl]-2,4-difluorophenyl}-3-fluoropyrrolidine-1-sulfonamide], on BRAF V600E, the DC50 lay within 5 to 50 nM and the Dmax is below 35%. For the same compound, on BRAF G466V, the DC50 was in the range of 1 to 10 nM and the Dmax is above 70%.
Take `COc1cc(C2CCN(CC3CCN(c4ncc(-c5cnc6[nH]cc(C(=O)c7c(F)ccc(NS(=O)(=O)N8CC[C@@H](F)C8)c7F)c6c5)cn4)CC3)CC2)cc2c1C(=O)N(C1CCC(=O)NC1=O)C2` (stereo partly drawn) [Compound 175, (3R)-N-[3-(5-{2-[4-({4-[2-(2,6-dioxopiperidin-3-yl)-7-methoxy-1-oxo-2,3-dihydro-1H-isoindol-5-yl]piperidin-1-yl}methyl)piperidin-1-yl]pyrimidin-5-yl}-1H-pyrrolo[2,3-b]pyridine-3-carbonyl)-2,4-difluorophenyl]-3-fluoropyrrolidine-1-sulfonamide]: the results for the DC50 on BRAF V600E and at BRAF G466V were 5 to 50 nM and below 1 nM, respectively. Also, the values for the Dmax at BRAF V600E and on BRAF G466V were 35 to 70% and above 70%, respectively.
Take `CC1(c2ccc(C3CCN(CC4CCN(c5ccc(-c6cnc7[nH]cc(C(=O)c8c(F)ccc(NS(=O)(=O)N9CC[C@@H](F)C9)c8F)c7c6)cc5)CC4)CC3)cc2F)CCC(=O)NC1=O` (stereo partly drawn) [Compound 176, (3R)-N-[2,4-difluoro-3-(5-{4-[4-({4-[3-fluoro-4-(3-methyl-2,6-dioxopiperidin-3-yl)phenyl]piperidin-1-yl}methyl)piperidin-1-yl]phenyl}-1H-pyrrolo[2,3-b]pyridine-3-carbonyl)phenyl]-3-fluoropyrrolidine-1-sulfonamide]: on BRAF V600E, the DC50 lay in the range of 5 to 50 nM and the Dmax was below 35%. Moreover, at BRAF G466V, the DC50 was 1 to 10 nM and the Dmax lay within 35 to 70%.
